# Read-outs that look alike come from different tables or passages of the source.
# Experiments:
# SK-OV-3 = tested on: SK-OV-3; parameters: method as in PMID 27898051; settings: read-out: Antitumor activity: IC50; cited from earlier work
# Hep-G2 = settings: read-out: Antitumor activity: IC50; cited from earlier work
# NCI-H460 = settings: read-out: Antitumor activity: IC50; cited from earlier work
# HT-29 = tested on: HT-29; parameters: method as in PMID 20023911; settings: read-out: Antitumor activity: IC50; cited from earlier work
# A2780 = tested on: A2780; parameters: method as in PMID 20023911; settings: read-out: Antitumor activity: IC50; cited from earlier work
# BEL-7404 [1] = settings: read-out: Antitumor activity: IC50; cited from earlier work
# MGC80-3 = assay: MTT cytotoxicity assay, MGC80-3; format: cell-based, human
# Protocol: (§1) The in vitro cytotoxicity of OD, 1–3 and the corresponding metal salts were determined by MTT assay towards a panel of human tumor cells including HepG2, T-24, BEL-7404, MGC80-3, SK-OV-3/DDP and normal HL-7702 cells. As the positive control, cisplatin was dissolved at a concentration of 1 mM in 0.154 M NaCl[32].
# (§2) The human tumor cell lines (BEL-7404, HepG2, MGC80–3, T-24, SK-OV-3/DDP and HeLa cells) and the human normal liver cell line HL-7702 were obtained from Shanghai Cell Bank in Chinese Academy of Sciences. Cells were cultured in Dulbecco’s modified Eagle’s medium (DMEM) or RPMI-1640 medium, which supplemented with 10% fetal bovine serum (FBS) and 100 U/mL penicillin and streptomycin. Cells were cultured at 37 °C in a humidified atmosphere with 5% CO2/95% air. Tested compounds (2.0 mM) were prepared as DMSO stock solution before they were diluted to working concentrations by PBS buffer (containing 0.5% DMSO), while cisplatin dissolved in 0.9% sodium chloride solution was used as positive controls.
# (§3) Cells in their logarithmic phase were seeded in 96-well plates with 5.5 × 10^3/180 μL per well for 24 h. Then 20 μL of compounds at various concentrations were added to each well to achieve final concentrations of 1.25, 2.5, 5.0, 10.0, and 20.0 μM. All the cells were incubated with test compounds for another 48 h before MTT assay. Control wells contained media with 0.5% DMSO. After 48 h of cultivation, 10 μL of MTT (5 mg/mL in PBS) was added to each well, and cells were incubated at 37 °C for 6 h. The contents in the wells were pipetted out carefully, and the formazan crystals formed were dissolved in 100 μL of DMSO, and the absorbance was measured by enzyme labeling instrument with 490 nm/630 nm double wavelength measurement. The IC50 value was defined as a drug concentration killing 50% cells in comparison with untreated controls, which was calculated by the Bliss method (n = 5). All tests were repeated in at least three independent trials.
# SK-OV-3/DDP = assay: MTT cytotoxicity assay, SK-OV-3/DDP; format: cell-based, human
# Protocol: as §1, §2, §3
# T-24 = assay: MTT cytotoxicity assay, T-24; format: cell-based, human
# Protocol: as §1, §2, §3
# HL-7702 = assay: MTT cytotoxicity assay, normal liver cells HL-7702; format: cell-based, human; settings: 48 h
# Protocol: as §1, §2, §3
# BEL-7404 [2] = assay: MTT cytotoxicity assay, BEL-7404; format: cell-based, human
# Protocol: as §1, §2, §3
# [3] = tested on: HepG2, T-24, BEL-7404, MGC80-3, SK-OV-3/DDP; assay: MTT cytotoxicity assay, panel of human tumor cells; format: cell-based; settings: 48 h, range over all the tested tumor cells, read-out: inhibition rate
# Protocol: as §1, §2
# Cells in their logarithmic phase were seeded in 96-well plates with 5.5 × 10^3/180 μL per well for 24 h. […] The contents in the wells were pipetted out carefully, and the formazan crystals formed were dissolved in 100 μL of DMSO, and the absorbance was measured by enzyme labeling instrument with 490 nm/630 nm double wavelength measurement. […]
# HepG2 cells [4] = assay: Cell cycle analysis by flow cytometry; format: cell-based, human; settings: HepG2, 0.5 and 1.0 μM, 24 h, compared to untreated cells
# Protocol: With the high cytotoxicity in vitro, HepG2 cells were selected to investigate the cell cycle treated with 1–3 (0.125, 0.25 and 0.5 μM) and OD (0.5 and 1.0 μM) for 24 h. […] However, 1–3 induced a significant increase of S-phase cell population in a dose-dependent manner.
# Cell cycle progression and apoptosis were determined by flow cytometric analysis. (a) Cell cycle arrest assay: HepG2 cells in their logarithmic phase were plated into 50 mL plates at a final density of 5−6 × 10^6 cells/well overnight, then they were treated with various doses (0.25, 0.5 and 1.0 μM) of 1–3 for another 24 h. Cells were trypsinized, collected, and fixed in ice-cold 75% ethanol at −20 °C overnight. After centrifugation, the fixed cells were rinsed with ice-cold phosphate buffered saline (PBS), and resuspended in 0.5 mL of PBS containing 100 μg/mL RNase, 50 μg/mL propidium iodide (PI) in the dark for 5−10 min. The cell cycle distribution was analyzed by FACS Calibur flow cytometer (BD) and calculated using ModFIT LT software. (b) Apoptosis assay: 1 × 10^5 HepG2 cells were plated in 6-well plates, after incubation for 24 h with complexes 1–3 at 1.0, 2.0 and 5.0 μM, cells were collected, and Apoptosis Detection kit FITC Annexin V was used to analyze the cell apoptosis according to the manufacturer’s instructions.
# HepG2 = assay: MTT cytotoxicity assay, HepG2; format: cell-based, human
# Protocol: as §1, §2, §3
# HepG2 cells [5] = assay: Comet assay for DNA damage; format: cell-based, human; parameters: unit not given here; settings: HepG2, 1.0 μM, 24 h
# Protocol: After the observation of significant S-phase arrest caused by 1–3, the study of DNA damage assay is necessary. The single cell gel electrophoresis technique (comet assay) is a simple, sensitive, reliable, and rapid method to detect DNA damage in eukaryotic cell[39]. As shown in Table 3 and Fig. 6, 1–3 at 1.0 μM induced DNA damage (fragmentation or unwinding) appeared as fluorescent comets with remarkable increase of tails size, especially for 3.
# The comet assay is a simple method for measuring DNA strand breaks in cells. The comet assay reagent kit was purchased from Trevigen, and the experiment was carried out according to the manufacturer’s instructions. After treatment with OD and 1–3 at 1.0 μM, HepG2 cells were harvested and suspended at 1 × 10^6 Hep-G2 cells/mL in PBS. The cells suspension was mixed with melted LM agarose at a ratio of 1:10 (v/v). An aliquot (75 μL) of the mixture was immediately pipetted onto the slide (Comet Slide TM). After refrigeration for 30 min, the slide was immersed in pre-chilled lysis solution and left on ice for 60 min, followed by immersing in freshly prepared alkaline solution (300 mM NaOH, 1 mM EDTA, pH > 13) for 60 min on ice in darkness. After DNA unwinding, the slide was subjected to alkaline solution for electrophoresis in a Savant ps 250 system set at 300 mA and 1 volt/cm for 30 min. After electrophoresis, the slide was rinsed with distilled H2O, fixed in 70% ethanol for 5 min and air-dried overnight. DNA was stained with SYBR Green I (Trevigen) and visualized under a fluorescence microscope (Nikon, Eclipse E600).
smiles,measurement,setting,value
Nc1cccc2c1C(=O)c1cccc3ccnc-2c13.[Cl][Ni][Cl] [Complex C00005],IC50,SK-OV-3,15 µM
same,IC50,Hep-G2,18.2 µM
same,IC50,NCI-H460,15.6 µM
Nc1c(Cl)ccc2c1-c1nccc3cccc(c13)C2=O.[Cl][Ni][Cl] [Complex C00006],IC50,SK-OV-3,29.1 µM
same,IC50,Hep-G2,28.8 µM
same,IC50,NCI-H460,35.2 µM
O=C1c2ccccc2-c2c3c(cc4ccnc1c24)OCO3.O=C1c2ccccc2-c2c3c(cc4ccnc1c24)OCO3.[Cl][Zn][Cl].[Cl][Zn][Cl] [Complex C00008],IC50,HT-29,5.8 µM
same,IC50,A2780,6.7 µM
same,IC50,BEL-7404 [1],8.4 µM
COc1cc2c(cc1O)C(=O)c1nccc3cc(OC(C)C)c(OC)c-2c13 [OD],IC50,"MGC80-3; Homo sapiens, MGC-803, MGC80-3, 48 h, MTT",23.3 ± 0.88 µM
same,inhibitive ratio,"MGC80-3; MGC80-3, 20 μmol/L, 48 h",42.28±0.24%
same,IC50,"SK-OV-3/DDP; Homo sapiens, SK-OV-3/DDP, 48 h, MTT",38.5 ± 1.42 µM
same,folds higher cytotoxicity than cisplatin,"SK-OV-3/DDP; SK-OV-3/DDP, ratio of IC50",2 folds
same,inhibitive ratio,"SK-OV-3/DDP; SKOV-3/DDP, 20 μmol/L, 48 h",45.57±1.94%
same,IC50,"T-24; Homo sapiens, T-24, 48 h, MTT",9.12 ± 0.11 µM
same,inhibitive ratio,"T-24; T-24, 20 μmol/L, 48 h",46.91±0.17%
same,inhibitive ratio,"HL-7702; HL-7702, 20 μmol/L",46.55±0.67%
same,IC50,"HL-7702; Homo sapiens, L02, HL-7702 normal liver cells, MTT",9.28 ± 0.43 µM
same,inhibitive ratio,"BEL-7404 [2]; BEL-7404, 20 μmol/L, 48 h",36.28±0.18%
same,IC50,"BEL-7404 [2]; Homo sapiens, BEL-7404, 48 h, MTT",24.8 ± 1.02 µM
same,inhibition at 20 µM,[3],33 to 47%
same,effect on the population of the cell cycle,HepG2 cells [4],barely change the population of the cell cycle
same,inhibitive ratio,"HepG2; HepG2, 20 μmol/L, 48 h",33.35±0.32%
same,IC50,"HepG2; Homo sapiens, HepG2, 48 h, MTT",8.98 ± 0.76 µM
same,Comet length,HepG2 cells [5],49.45 ± 6.19
same,Olive tail moment,HepG2 cells [5],0.13 ± 0.29
same,Tail length,HepG2 cells [5],1.96 ± 1.78
same,Tail moment,HepG2 cells [5],0.12 ± 0.21

# Source: article PMC5402304, “Oxoaporphine Metal Complexes (Co^II, Ni^II, Zn^II) with High Antitumor Activity by Inducing Mitochondria-Mediated Apoptosis and S-phase Arrest in HepG2” (Scientific Reports, 2017)
